The source of these data is ChEMBL document CHEMBL6127153, “Hybrids of Membrane-Translocating Antimicrobial Peptides Show Enhanced Activity through Membrane Permeabilization” (ACS Med Chem Lett, 2024).

Molecules are shown by their SMILES. Values after ≈ are worked out from the molar mass of the structure shown. Active and inactive are the calls of the source. No cut-off for these calls is given here.

For data set [1], the system named is Cell membrane. The data set is described as follows: Induction of membrane permeabilization in Escherichia coli assessed as increase in fluorescence intensity at 2 uM by PI staining based fluorescence spectrophotometric analysis. The format is subcellular.
The test system of data set [2] is Escherichia coli. As to the kind of experiment: Antibacterial activity against Escherichia coli Top10 assessed as inhibition of bacterial growth at 100 uM incubated for 3 hrs by radial diffusion assay. The format is functional, organism-based.
Data set [3] deals with Cell membrane. The data set is described as follows: Induction of membrane translocation in Escherichia coli spheroplasts assessed as increase in fluorescence intensity using FITC-labeled compound by confocal microscopy. The format is subcellular.
In data set [4] the test system is HEK293. The data set is described as follows: Cytotoxicity against HEK293 cells assessed as effect on cell metabolic activity at 18.2 uM incubated for overnight by MTS assay. The format is toxicity, cell-based. The conditions noted are these: human, hek293, 18.2 µM. A general note: Tetrazolium assays rely on reduction of a dye to a coloured formazan, in cell work by metabolically active cells.

Data set [5] has as its system Bacillus subtilis. The data set is described as follows: Antibacterial activity against Bacillus subtilis ATCC6051 assessed as inhibition of bacterial growth incubated for 1 hr followed by TSB addition and measured after 18 to 24 hrs by microbroth dilution assay. In kind it is functional. The settings on record: time 19-25 hrs. In general terms: Broth dilution looks for growth in wells or tubes with falling amounts of substance.

Data set [6] concerns Bacillus subtilis. As to the kind of experiment: Antibacterial activity against Bacillus subtilis ATCC6051 assessed as inhibition of bacterial growth at 100 uM incubated for 3 hrs by radial diffusion assay. The format is functional, organism-based.

In the case of `CC(C)C[C@H](NC(=O)CNC(=O)[C@H](C)NC(=O)[C@H](CCCNC(=N)N)NC(=O)[C@H](CO)NC(=O)[C@H](CO)NC(=O)[C@H](CCCNC(=N)N)NC(=O)[C@@H](N)[C@@H](C)O)C(=O)N[C@@H](CCC(N)=O)C(=O)N[C@@H](Cc1c[nH]c2ccccc12)C(=O)N1CCC[C@H]1C(=O)N[C@H](C(=O)NCC(=O)N[C@@H](CCCNC(=N)N)C(=O)N[C@H](C(=O)N[C@@H](Cc1cnc[nH]1)C(=O)N[C@@H](CCCNC(=N)N)C(=O)N[C@@H](CC(C)C)C(=O)N[C@@H](CC(C)C)C(=O)N[C@@H](CCCNC(=N)N)C(=O)N[C@@H](CCCCN)C(=O)O)C(C)C)C(C)C`, the outcome in data set [1], in data set [2], in data set [3] and in data set [6] was Active. Also, the Activity entry in data set [4] is “Non-Toxic”. The MIC in data set [5] came to 18.2 µM (≈ 45 µg/mL).

In the case of `CC[C@H](C)[C@H](NC(=O)[C@H](CCCNC(=N)N)NC(=O)[C@@H](NC(=O)[C@H](CCCCN)NC(=O)[C@H](CCCCN)NC(=O)[C@H](CC(N)=O)NC(=O)[C@H](CC(=O)O)NC(=O)[C@H](CCCNC(=N)N)NC(=O)[C@H](C)N)[C@@H](C)O)C(=O)N[C@@H](Cc1c[nH]c2ccccc12)C(=O)N1CCC[C@H]1C(=O)N[C@@H](CCCNC(=N)N)C(=O)N[C@@H](Cc1cnc[nH]1)C(=O)N[C@@H](CC(C)C)C(=O)N[C@@H](CCC(N)=O)C(=O)N[C@@H](CC(C)C)C(=O)N[C@@H](C)C(=O)N[C@H](C(=O)N[C@@H](CCCNC(=N)N)C(=O)N[C@@H](CC(N)=O)C(=O)N[C@H](C(=O)N[C@@H](CCCNC(=N)N)C(=O)N[C@@H](CO)C(=O)N[C@@H](CO)C(=O)N[C@@H](CCCNC(=N)N)C(=O)N[C@@H](C)C(=O)NCC(=O)N[C@@H](CC(C)C)C(=O)N[C@@H](CCC(N)=O)C(=O)N[C@@H](Cc1c[nH]c2ccccc12)C(=O)N1CCC[C@H]1C(=O)N[C@H](C(=O)NCC(=O)N[C@@H](CCCNC(=N)N)C(=O)N[C@H](C(=O)N[C@@H](Cc1cnc[nH]1)C(=O)N[C@@H](CCCNC(=N)N)C(=O)N[C@@H](CC(C)C)C(=O)N[C@@H](CC(C)C)C(=O)N[C@@H](CCCNC(=N)N)C(=O)N[C@@H](CCCCN)C(=O)O)C(C)C)C(C)C)[C@@H](C)O)C(C)C`, the result in data set [1], in data set [2], in data set [3] and in data set [6] was Active. Also, the Activity result in data set [4] is on record as “Non-Toxic”.

Usually MIC stands for the least concentration at which growth counts as inhibited.
